Results taken from ChEMBL document CHEMBL4229418, “Design, synthesis and pharmacology of aortic-selective acyl-CoA: Cholesterol O-acyltransferase (ACAT/SOAT) inhibitors” (Bioorg Med Chem, 2018).
Values after ≈ are worked out from the molar mass of the structure shown.

What was measured:
Hamster [1] = test: Effect on lipid composition in Bio F1B hamster model of diet-induced atherosclerosis assessed as liver total cholesterol level at 30 mg/kg/day added to chow pellets (reference value: 31.99 mg/dl); assay type: functional, Cricetinae
Hamster [2] = test: Antiatherosclerotic activity in Bio F1B hamster model of diet-induced atherosclerosis assessed as reduction in lipid accumulation areas in aortic arch at 10 mg/kg/day added to chow pellets by oil red O staining based assay relative to control; assay type: functional; details: Cricetinae
Hamster [3] = test: Antiatherosclerotic activity in Bio F1B hamster model of diet-induced atherosclerosis assessed as adrenal cholesterol ester level at 1 mg/kg/day added to chow pellets (reference value: 5.88 mg/dl); assay type: functional, Cricetinae
Hamster [4] = test: Antiatherosclerotic activity in Bio F1B hamster model of diet-induced atherosclerosis assessed as liver cholesterol ester level at 1 mg/kg/day added to chow pellets (reference value: 24.04 mg/dl); assay type: functional, Cricetinae
Hamster [5] = test: Toxicity in Bio F1B hamster model of diet-induced atherosclerosis assessed as plasma total cholesterol level at 30 mg/kg/day added to chow pellets (reference value: 2160.1 mg/dl); assay type: organism-based; details: cricetinae, in vivo
Hamster [6] = test: Effect on lipid composition in Bio F1B hamster model of diet-induced atherosclerosis assessed as adrenal total cholesterol level at 30 mg/kg/day added to chow pellets (reference value: 10.54 mg/dl); assay type: functional, Cricetinae
Hamster [7] = test: Antiatherosclerotic activity in Bio F1B hamster model of diet-induced atherosclerosis assessed as intestinal free cholesterol level at 30 mg/kg/day added to chow pellets (reference value: 3.41 mg/dl); assay type: functional, Cricetinae
Hamster [8] = test: Antiatherosclerotic activity in Bio F1B hamster model of diet-induced atherosclerosis assessed as plasma cholesterol ester level at 30 mg/kg/day added to chow pellets (reference value: 1379.3 mg/dl); assay type: functional, Cricetinae
Hamster [9] = test: Toxicity in Bio F1B hamster model of diet-induced atherosclerosis assessed as adrenal free cholesterol level at 3 mg/kg/day added to chow pellets (reference value: 4.65 mg/dl); assay type: organism-based; details: cricetinae, in vivo
Hamster [10] = test: Antiatherosclerotic activity in Bio F1B hamster model of diet-induced atherosclerosis assessed as reduction in lipid accumulation areas in aortic arch at 3 mg/kg/day added to chow pellets by oil red O staining based assay relative to control; assay type: functional; details: Cricetinae
Hamster [11] = test: Effect on lipid composition in Bio F1B hamster model of diet-induced atherosclerosis assessed as intestine total cholesterol level at 3 mg/kg/day added to chow pellets (reference value: 4.51 mg/dl); assay type: functional, Cricetinae
[12] = Tmax in non-fasted Beagle dog at 30 mg/kg, po by LC-MS/MS analysis; assay type: ADME, organism-based, Canis lupus familiaris; details: in vivo
Hamster [13] = test: Antiatherosclerotic activity in Bio F1B hamster model of diet-induced atherosclerosis assessed as adrenal cholesterol ester level at 30 mg/kg/day added to chow pellets (reference value: 5.88 mg/dl); assay type: functional, Cricetinae
Hamster [14] = test: Effect on lipid composition in Bio F1B hamster model of diet-induced atherosclerosis assessed as intestine total cholesterol level at 1 mg/kg/day added to chow pellets (reference value: 4.51 mg/dl); assay type: functional, Cricetinae
[15] = Cmax in non-fasted Beagle dog at 30 mg/kg, po by LC-MS/MS analysis; assay type: ADME, organism-based, Canis lupus familiaris; design: dose 30 mg/kg, route oral; details: in vivo
Hamster [16] = test: Toxicity in Bio F1B hamster model of diet-induced atherosclerosis assessed as plasma total cholesterol level at 3 mg/kg/day added to chow pellets (reference value: 2160.1 mg/dl); assay type: organism-based; details: cricetinae, in vivo
Hamster [17] = test: Effect on lipid composition in Bio F1B hamster model of diet-induced atherosclerosis assessed as adrenal total cholesterol level at 10 mg/kg/day added to chow pellets (reference value: 10.54 mg/dl); assay type: functional, Cricetinae
Hamster [18] = test: Antiatherosclerotic activity in Bio F1B hamster model of diet-induced atherosclerosis assessed as plasma free cholesterol level at 30 mg/kg/day added to chow pellets (reference value: 780.8 mg/dl); assay type: functional, Cricetinae
[19] = Toxicity in rat measured over 2 weeks; assay type: organism-based; details: in vivo
[20] = Tmax in non-fasted Sprague-Dawley rat at 30 mg/kg, po by LC-MS/MS analysis; assay type: ADME, organism-based; details: in vivo
Hamster [21] = test: Toxicity in Bio F1B hamster model of diet-induced atherosclerosis assessed as adrenal free cholesterol level at 1 mg/kg/day added to chow pellets (reference value: 4.65 mg/dl); assay type: organism-based; details: cricetinae, in vivo
Hamster [22] = test: Antiatherosclerotic activity in Bio F1B hamster model of diet-induced atherosclerosis assessed as plasma cholesterol ester level at 3 mg/kg/day added to chow pellets (reference value: 1379.3 mg/dl); assay type: functional, Cricetinae
[23] = Solubility of the compound in pH 1.2 solution; assay type: physicochemical; details: buffer
Hamster [24] = test: Toxicity in Bio F1B hamster model of diet-induced atherosclerosis assessed as adrenal free cholesterol level at 10 mg/kg/day added to chow pellets (reference value: 4.65 mg/dl); assay type: organism-based; details: cricetinae, in vivo
Hamster [25] = test: Antiatherosclerotic activity in Bio F1B hamster model of diet-induced atherosclerosis assessed as intestinal cholesterol ester level at 30 mg/kg/day added to chow pellets (reference value: 1.09 mg/dl); assay type: functional, Cricetinae
Hamster [26] = test: Antiatherosclerotic activity in Bio F1B hamster model of diet-induced atherosclerosis assessed as liver free cholesterol level at 30 mg/kg/day added to chow pellets (reference value: 7.94 mg/dl); assay type: functional, Cricetinae
Hamster [27] = test: Effect on lipid composition in Bio F1B hamster model of diet-induced atherosclerosis assessed as intestine total cholesterol level at 10 mg/kg/day added to chow pellets (reference value: 4.51 mg/dl); assay type: functional, Cricetinae
Hamster [28] = test: Effect on lipid composition in Bio F1B hamster model of diet-induced atherosclerosis assessed as liver total cholesterol level at 1 mg/kg/day added to chow pellets (reference value: 31.99 mg/dl); assay type: functional, Cricetinae
Hamster [29] = test: Antiatherosclerotic activity in Bio F1B hamster model of diet-induced atherosclerosis assessed as reduction in lipid accumulation areas in aortic arch at 30 mg/kg/day added to chow pellets by oil red O staining based assay relative to control; assay type: functional; details: Cricetinae
Hamster [30] = test: Antiatherosclerotic activity in Bio F1B hamster model of diet-induced atherosclerosis assessed as liver free cholesterol level at 1 mg/kg/day added to chow pellets (reference value: 7.94 mg/dl); assay type: functional, Cricetinae
Hamster [31] = test: Antiatherosclerotic activity in Bio F1B hamster model of diet-induced atherosclerosis assessed as intestinal cholesterol ester level at 10 mg/kg/day added to chow pellets (reference value: 1.09 mg/dl); assay type: functional, Cricetinae
[32] = Cmax in non-fasted Sprague-Dawley rat at 30 mg/kg, po by LC-MS/MS analysis; assay type: ADME, organism-based; design: dose 30 mg/kg, route oral; details: in vivo
Hamster [33] = test: Antiatherosclerotic activity in Bio F1B hamster model of diet-induced atherosclerosis assessed as intestinal free cholesterol level at 3 mg/kg/day added to chow pellets (reference value: 3.41 mg/dl); assay type: functional, Cricetinae
Hamster [34] = test: Effect on lipid composition in Bio F1B hamster model of diet-induced atherosclerosis assessed as liver total cholesterol level at 3 mg/kg/day added to chow pellets (reference value: 31.99 mg/dl); assay type: functional, Cricetinae
Hamster [35] = test: Antiatherosclerotic activity in Bio F1B hamster model of diet-induced atherosclerosis assessed as intestinal free cholesterol level at 10 mg/kg/day added to chow pellets (reference value: 3.41 mg/dl); assay type: functional, Cricetinae

SMILES: CC(C)c1cccc(C(C)C)c1NC(=O)CCCCCCCCSc1nc2ccccc2o1
- Activity (Hamster [1]): 3.03 mg/dL
- inhibition in vivo at 10 mg/kg/day (Hamster [2]): 42%
- Activity (Hamster [3]): 6.72 mg/dL
- Activity (Hamster [4]): 22.81 mg/dL
- Activity (Hamster [5]): 476.3 mg/dL
- Activity (Hamster [6]): 3.47 mg/dL
- Activity (Hamster [7]): 4.62 mg/dL
- Activity (Hamster [8]): 259 mg/dL
- Activity (Hamster [9]): 4.05 mg/dL
- inhibition in vivo at 3 mg/kg/day (Hamster [10]): 69%
- Activity (Hamster [11]): 4.12 mg/dL
- Tmax [12]: 3 h
- Activity (Hamster [13]): 1.08 mg/dL
- Activity (Hamster [14]): 4.4 mg/dL
- Cmax [15]: 582 ng/mL
- Activity (Hamster [16]): 2241 mg/dL
- Activity (Hamster [17]): 7 mg/dL
- Activity (Hamster [18]): 217.2 mg/dL
- NOAEL at 336 h [19]: 30 mg/kg
- Tmax [20]: 3.2 h
- Activity (Hamster [21]): 4.41 mg/dL
- Activity (Hamster [22]): 1439.6 mg/dL
- solubility [23]: 0.03 µg/mL (≈ 0.0643 µM)
- Activity (Hamster [24]): 3.5 mg/dL
- Activity (Hamster [25]): 0.24 mg/dL
- Activity (Hamster [26]): 2.43 mg/dL
- Activity (Hamster [27]): 4.07 mg/dL
- Activity (Hamster [28]): 30.75 mg/dL
- inhibition in vivo at 30 mg/kg/day (Hamster [29]): 7%
- Activity (Hamster [30]): 7.94 mg/dL
- Activity (Hamster [31]): 0.31 mg/dL
- Cmax [32]: 107 ng/mL
- Activity (Hamster [33]): 3.18 mg/dL
- Activity (Hamster [34]): 23.62 mg/dL
- Activity (Hamster [35]): 3.82 mg/dL
